Source: US20260256821A1, “USE OF GINSENOSIDE IN COMBINATION WITH PD-1 BLOCKER IN PREPARING MEDICAMENT AGAINST HEAD AND NECK SQUAMOUS CELL CARCINOMA” (CHINESE ACADEMY OF MEDICAL SCIENCES INSTITUTE OF MEDICINAL …, priority 2022, published 2026)

Key:
[1] = system: Cal-27 cells; test: Proliferation of tongue squamous cell carcinoma Cal-27 cells (CCK-8); assay type: cell-based; conditions: 48 h treatment, CCK-8, FIG. 1
Method: Cells in good growth state were counted and inoculated into 96-well plates with 100 μL per well according to a certain cell density. After the cells adherence to the wall overnight, a medicament solution was added to intervene the cells. After 48 h of medicament treatment, CCK-8 reagent was added, 10 μL per well. After incubation for 2 h, the culture plates were taken out and detected at 450 nm wavelength of the enzymograph.

[2] = system: Cal-27 cells; test: Killing effect of lymphocytes on tumor cells in Cal-27/PBMC co-culture (Incucyte); assay type: cell-based; conditions: compared with PBMC control group, anti-PD-1 antibody 5 μg/mL; for killing effect of lymphocytes on tumor cells: FIG. 5, Rg3 1, 5, 10 μM; for number of Cal-27 cells / killing effect of lymphocytes on tumor cells: FIG. 3, Rh2 1, 5, 10 μM, effect-to-target ratio 5:1
Method: Cal-27 cells in good growth state were digested and centrifuged, appropriate amount of cell suspension was taken and placed in a new centrifuge tube, incubated with the target red label reagent for 20 min, washed and centrifuged with serum-free culture solution, then plated, and placed in an incubator for overnight cultivation to make them adhere to the wall. PBMC stimulated by PHA was added into the well plate in ratios of 1:1, 5:1, 10:1 and 20:1, and Incucyte real-time dynamic cell imaging system was used to observe the killing effect of lymphocytes on tumor cells under different target ratio conditions.
Cal-27 cells in good growth statu were digested and centrifuged, incubated with red target labeling reagent for 20 min, and washed with serum-free culture solution. After the cells were adherence to the wall overnight, the PBMC stimulated by PHA was added to the well plate according to the effect-to-target ratio of 5:1 and co-cultured with Cal-27 cells. Ginsenoside Rh2 or ginsenoside Rg3 of medicament solution with different concentrations were prepared, and they and 5 μg/mL human anti-PD-1 antibody were added into the well plate for incubation, and were divided into control group, ginsenoside alone group, anti-PD-1 antibody alone group, ginsenoside and anti-PD-1 antibody combination group. The culture plates were placed into Incucyte real-time dynamic cell imaging analysis system for real-time monitoring.

[3] = system: SCC-7 cells; test: Tumor growth in head and neck squamous cell carcinoma-bearing mice; assay type: in vivo; conditions: FIG. 6A; alone, versus model control; Rh2 15 mg/kg intragastric; anti-PD-1 antibody 200 μg/mice intraperitoneal
Method: SPF grade C57 mice, 6 weeks old, female, were purchased from Beijing Charles River Laboratories Animal Company. […] OF MEDICINAL PLANT DEVELOPMENT. The experimental facilities comply with barrier environmental standards, with a temperature of 20° C. to 26° C., a relative humidity of 40% to 70%, and light and dark alternating for 12 hours each. Mice were raised in standard boxes, with 5 mice per cage. During the raising process, the animals were allowed to eat and move freely.
(§1) The mice were randomly divided into four groups: model control group, ginsenoside Rh2 group (15 mg/kg), anti-PD-1 antibody group (200 μg/mice), and ginsenoside Rh2 in combination with anti-PD-1 antibody group. The administration time and volume were as follows: ginsenoside Rh2 was administered intragastrically 5 days before vaccination; anti-PD-1 antibody was administered intraperitoneally on days 3, 6, 9, and 12 after vaccination.
(§2) SCC-7 cells were resuscitated and expanded in large quantities. Trypsin was added to digest and the cells were collected. After counted, the cells were re-suspended in PBS solution and the cell concentration was adjusted, and the mice were inoculated with 5*10^6 cells/0.2 mL in the right armpit.
Throughout the experiment, the tumor volume of the mice was measured twice weekly.
After the experiment, the mice's eyeballs were removed to collect blood, and the tumor tissue was peeled off. […]

[4] = system: tumor-infiltrating lymphocytes; test: Tumor-infiltrating lymphocyte levels in mice tumor tissue (flow cytometry); assay type: in vivo; conditions: for number/abundance of T cells infiltrating into tumors: FIGS. 7A and 7D
Method: as §1, §2
After the experiment, the mice's eyeballs were removed to collect blood, and the tumor tissue was peeled off. The tumor tissue was divided into two parts, one part was quickly frozen in liquid nitrogen and then transferred to a −80° C. refrigerator for storage, and the other part was stored in PBS solution for flow cytometry detection.
Mice tumor samples were cut into pieces with sterile scissors, ground gently with a syringe stopper, and filtered through a 40 μm filter to prepare a single cell suspension. The cell suspension was transferred to a new centrifuge tube, PBS solution was added, the supernatant was discarded after centrifugation, and the remaining was washed with PBS and centrifuged again. PBS was added to re-suspended, 100 μL of resuspending solution was placed into the flow tube, the corresponding flow cytometry antibody was added for incubating and staining for 20 minutes, and then on-machine detection was performed.

[5] = Rh2 as metabolite relative to ginsenoside Rg3; cited from earlier work

With `CC(C)=CCC[C@](C)(O[C@@H]1O[C@H](CO)[C@@H](O)[C@H](O)[C@H]1O)[C@H]1CC[C@]2(C)[C@@H]1[C@H](O)C[C@@H]1[C@@]3(C)CC[C@H](O)C(C)(C)[C@@H]3CC[C@]12C` [ginsenoside CK] the “inhibitory effect on Cal-27 cells” value [1] was “most significant inhibitory effect”.

In the case of `CC(C)=CCC[C@](C)(O[C@@H]1O[C@H](CO[C@@H]2O[C@H](CO)[C@@H](O)[C@H](O)[C@H]2O)[C@@H](O)[C@H](O)[C@H]1O)[C@H]1CC[C@]2(C)[C@@H]1[C@H](O)C[C@@H]1[C@@]3(C)CC[C@H](O[C@@H]4O[C@H](CO)[C@@H](O)[C@H](O)[C@H]4O[C@@H]4O[C@H](CO)[C@@H](O)[C@H](O)[C@H]4O)C(C)(C)[C@@H]3CC[C@]12C` [ginsenoside Rb1], the IC50 [1] is reported as about 100 µM and the “inhibitory effect on Cal-27 cells” value [1] is reported as “concentration-dependent inhibitory effects”.

For `CC(C)=CCC[C@](C)(O[C@@H]1O[C@H](CO[C@@H]2OC[C@@H](O)[C@H](O)[C@H]2O)[C@@H](O)[C@H](O)[C@H]1O)[C@H]1CC[C@]2(C)[C@@H]1[C@H](O)C[C@@H]1[C@@]3(C)CC[C@H](O[C@@H]4O[C@H](CO)[C@@H](O)[C@H](O)[C@H]4O[C@@H]4O[C@H](CO)[C@@H](O)[C@H](O)[C@H]4O)C(C)(C)[C@@H]3CC[C@]12C` [ginsenoside Rb3], the IC50 [1] was about 100 µM and the “inhibitory effect on Cal-27 cells” value [1] was “concentration-dependent inhibitory effects”.

With `CC(C)=CCC[C@](C)(O[C@@H]1O[C@H](CO[C@@H]2O[C@@H](CO)[C@H](O)[C@H]2O)[C@@H](O)[C@H](O)[C@H]1O)[C@H]1CC[C@]2(C)[C@@H]1[C@H](O)C[C@@H]1[C@@]3(C)CC[C@H](O[C@@H]4O[C@H](CO)[C@@H](O)[C@H](O)[C@H]4O[C@@H]4O[C@H](CO)[C@@H](O)[C@H](O)[C@H]4O)C(C)(C)[C@@H]3CC[C@]12C` [ginsenoside Rc] the “inhibitory effect on Cal-27 cells” value [1] was “concentration-dependent inhibitory effects” and the IC50 ([1]; Homo sapiens, CAL-27) was about 100 µM.

For `CC(C)=CCC[C@](C)(O[C@@H]1O[C@H](CO)[C@@H](O)[C@H](O)[C@H]1O)[C@H]1CC[C@]2(C)[C@@H]1[C@H](O)C[C@@H]1[C@@]3(C)CC[C@H](O)C(C)(C)[C@@H]3[C@@H](O[C@@H]3O[C@H](CO)[C@@H](O)[C@H](O)[C@H]3O[C@@H]3O[C@@H](C)[C@H](O)[C@@H](O)[C@H]3O)C[C@]12C` [ginsenoside Re], the “inhibitory effect on Cal-27 cells” value [1] was “concentration-dependent inhibitory effects” and the IC50 ([1]; Homo sapiens, CAL-27) was about 100 µM.

In the case of `CC(C)=CCC[C@](C)(O[C@@H]1O[C@H](CO)[C@@H](O)[C@H](O)[C@H]1O)[C@H]1CC[C@]2(C)[C@@H]1[C@H](O)C[C@@H]1[C@@]3(C)CC[C@H](O)C(C)(C)[C@@H]3[C@@H](O[C@@H]3O[C@H](CO)[C@@H](O)[C@H](O)[C@H]3O)C[C@]12C` [ginsenoside Rg1], the IC50 [1] is reported as about 100 µM and the “inhibitory effect on Cal-27 cells” value [1] is reported as “concentration-dependent inhibitory effects”.

In the case of `CC(C)=CCC[C@](C)(O)[C@H]1CC[C@]2(C)[C@@H]1[C@H](O)C[C@@H]1[C@@]3(C)CC[C@H](O[C@@H]4O[C@H](CO)[C@@H](O)[C@H](O)[C@H]4O[C@@H]4O[C@H](CO)[C@@H](O)[C@H](O)[C@H]4O)C(C)(C)[C@@H]3CC[C@]12C` [ginsenoside Rg3], the “inhibitory effect on Cal-27 cells” value [1] is reported as “most significant inhibitory effect” and the “killing effect of lymphocytes on tumor cells” value [2] is reported as “can promote the killing effect of lymphocytes”.

For `CC(C)=CCC[C@](C)(O)[C@H]1CC[C@]2(C)[C@@H]1[C@H](O)C[C@@H]1[C@@]3(C)CC[C@H](O)C(C)(C)[C@@H]3[C@@H](O[C@@H]3O[C@H](CO)[C@@H](O)[C@H](O)[C@H]3O)C[C@]12C` [ginsenoside Rh1], the IC50 [1] was about 100 µM and the “inhibitory effect on Cal-27 cells” value [1] was “concentration-dependent inhibitory effects”.

With `CC(C)=CCC[C@](C)(O)[C@H]1CC[C@]2(C)[C@@H]1[C@H](O)C[C@@H]1[C@@]3(C)CC[C@H](O[C@@H]4O[C@H](CO)[C@@H](O)[C@H](O)[C@H]4O)C(C)(C)[C@@H]3CC[C@]12C` [ginsenoside Rh2] the “inhibitory effect on Cal-27 cells” value [1] was “most significant inhibitory effect”, the “number of Cal-27 cells / killing effect of lymphocytes on tumor cells” value [2] was “can reduce the number of Cal-27 cells” and the tumor volume [3] was “significantly reduce the tumor size”. For the same compound, the “number/abundance of T cells infiltrating into tumors” value [4] was “neither ginsenoside Rh2 nor anti-PD-1 antibody had a significant effect”, the “proportion of B cell activation” value ([4]; FIGS. 7C and 7F, P<0.05) was “significantly increase the proportion of B cell activation” and the content increased [5] was 50 times. The oral bioavailability increased [5] was 5 times.

In the case of pembrolizumab [anti-PD-1 antibody], the “number of Cal-27 cells / killing effect of lymphocytes on tumor cells” value [2] is reported as “can also significantly promote the killing effect of lymphocytes”, the “killing effect of lymphocytes on tumor cells” value [2] is reported as “can significantly promote the killing effect of lymphocytes” and the tumor volume [3] is reported as “decreased slightly”. For the same compound, the “number/abundance of T cells infiltrating into tumors” value [4] was “neither ginsenoside Rh2 nor anti-PD-1 antibody had a significant effect” and the “infiltration level of CD8+ T cells in tumors” value ([4]; FIGS. 7B and 7E, P<0.05) was “increased significantly”.
